Results published in PubChem BioAssay (NCI).
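Where inhibition never reached the appropriate level, the endpoint shown equals the highest concentration tested. Otherwise, values were interpolated linearly from a five-concentration, 48-hour dose response in 96-well plates. Definition used: TGI = concentration required for complete inhibition of growth.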

Assays:
Experiment in all cases: inhibition of tumour cell growth, NCI panel, 48 h
UACC-257 melanoma = tested on: UACC-257 melanoma
DLD-1 colon = tested on: DLD-1 colon
SR leukemia = tested on: SR leukemia
NCI-H226 lung = tested on: NCI-H226 lung
SN12C renal = tested on: SN12C renal
ACHN renal = tested on: ACHN renal
OVCAR-3 ovarian = tested on: OVCAR-3 ovarian
SK-OV-3 ovarian = tested on: SK-OV-3 ovarian
UACC-62 melanoma = tested on: UACC-62 melanoma
M14 melanoma = tested on: M14 melanoma
SF-268 CNS = tested on: SF-268 CNS
TK-10 renal = tested on: TK-10 renal
786-0 renal = tested on: 786-0 renal
NCI-H23 lung = tested on: NCI-H23 lung
LOX IMVI melanoma = tested on: LOX IMVI melanoma
KM20L2 colon = tested on: KM20L2 colon
K-562 leukemia = tested on: K-562 leukemia
IGROV1 ovarian = tested on: IGROV1 ovarian
SF-295 CNS = tested on: SF-295 CNS
EKVX NSCLC = tested on: EKVX NSCLC
RXF-631 renal = tested on: RXF-631 renal
KM12 colon = tested on: KM12 colon
SNB-78 CNS = tested on: SNB-78 CNS
SK-MEL-2 melanoma = tested on: SK-MEL-2 melanoma
HL-60(TB) leukemia = tested on: HL-60(TB) leukemia
HCT-15 colon = tested on: HCT-15 colon
HOP-92 NSCLC = tested on: HOP-92 NSCLC
M19-MEL melanoma = tested on: M19-MEL melanoma
SNB-75 CNS = tested on: SNB-75 CNS
MOLT-4 leukemia = tested on: MOLT-4 leukemia
XF 498 CNS = tested on: XF 498 CNS
RPMI-8226 leukemia = tested on: RPMI-8226 leukemia
U251 CNS = tested on: U251 CNS
MALME-3M melanoma = tested on: MALME-3M melanoma
UO-31 renal = tested on: UO-31 renal
CCRF-CEM leukemia = tested on: CCRF-CEM leukemia
SF-539 CNS = tested on: SF-539 CNS
NCI-H522 lung = tested on: NCI-H522 lung
DMS 273 small cell lung = tested on: DMS 273 small cell lung
HT29 colon = tested on: HT29 colon
HCT-116 colon = tested on: HCT-116 colon
A549 NSCLC = tested on: A549 NSCLC
SW-620 colon = tested on: SW-620 colon
LXFL 529 NSCLC = tested on: LXFL 529 NSCLC
SK-MEL-28 melanoma = tested on: SK-MEL-28 melanoma
CAKI-1 renal = tested on: CAKI-1 renal
SNB-19 CNS = tested on: SNB-19 CNS
DMS 114 small cell lung = tested on: DMS 114 small cell lung
OVCAR-5 ovarian = tested on: OVCAR-5 ovarian
HOP-62 NSCLC = tested on: HOP-62 NSCLC
RXF 393 renal = tested on: RXF 393 renal
HCC-2998 colon = tested on: HCC-2998 colon
OVCAR-4 ovarian = tested on: OVCAR-4 ovarian
COLO 205 colon = tested on: COLO 205 colon
OVCAR-8 ovarian = tested on: OVCAR-8 ovarian
SK-MEL-5 melanoma = tested on: SK-MEL-5 melanoma
HOP-18 NSCLC = tested on: HOP-18 NSCLC

Measured: TGI

Cc1ccc(NC(=O)C2C(=O)N(c3ccc(C)c(C)c3)C(=O)/C2=N\NC(N)=S)cc1C (stereo not given)
not listed: DMS 114 small cell lung | OVCAR-5 ovarian | HOP-62 NSCLC | RXF 393 renal | HCC-2998 colon | OVCAR-4 ovarian | COLO 205 colon | OVCAR-8 ovarian | SK-MEL-5 melanoma | HOP-18 NSCLC
> 100 µM: all other assays above

CC1(C)CC(=O)C(=[N+]=[N-])C(=O)C1
not listed: SR leukemia | RXF-631 renal | SNB-78 CNS | M19-MEL melanoma | MOLT-4 leukemia | U251 CNS | UO-31 renal | DMS 273 small cell lung | OVCAR-8 ovarian | SK-MEL-5 melanoma | HOP-18 NSCLC
> 100 µM: all other assays above

Cc1[nH]nc2c1C(=O)C=C(N(CCO)c1ccccc1)C2=O
not listed: SR leukemia | ACHN renal | SF-268 CNS | KM20L2 colon | RXF-631 renal | SK-MEL-2 melanoma | XF 498 CNS | OVCAR-5 ovarian | HOP-62 NSCLC | OVCAR-4 ovarian
> 100 µM: all other assays above

Cc1c2n(c3ccccc13)CC1CON(C)C21 (stereo not given)
not listed: UACC-257 melanoma | SN12C renal | ACHN renal | OVCAR-3 ovarian | TK-10 renal | LOX IMVI melanoma | KM20L2 colon | SF-295 CNS | EKVX NSCLC | KM12 colon | HCT-15 colon | XF 498 CNS | U251 CNS | HT29 colon | A549 NSCLC | SW-620 colon | SNB-19 CNS | OVCAR-5 ovarian | RXF 393 renal | OVCAR-8 ovarian | SK-MEL-5 melanoma | HOP-18 NSCLC
> 100 µM: all other assays above
